Data: patent US9423396B2, “Bodipy structure fluorescence probes for diverse biological applications” (National University of Singapore, priority 2011, dated 2016)

Test: Spectroscopic measurements (absorption, emission, quantum yield, extinction coefficient)
Type: physicochemical
[1] = absorption maximum, BDNCA library
[2] = difference of emission and absorption maxima
[3] = extinction coefficient, BDNCA library; in M-1 cm-1 (unit assumed)
[4] = fluorescence emission maximum, BDNCA library
[5] = BDNCA library, difference emission minus absorption
[6] = BDNCA library, extinction coefficient; in M-1 cm-1 (unit assumed)
[7] = BDNCA library, fluorescence emission

Structure (SMILES) | Abs [1] | Flu-Abs [2] | ε [3] | Flu [4] | Qunt. Yield (quantum yield, BDNCA library) | Qunt. Yield (BDNCA library) | Abs (BDNCA library, absorption) | Flu-Abs [5] | ε [6] | Flu [7]
CC1=CC(/C=C/c2cccc(B(O)O)c2)=[N+]2C1=C(c1ccc(NC(=O)CCl)cc1)c1cccn1[B-]2(F)F [BDNCA-404] | 556 nm | 18 | 18,124 | 574 | 0.03 |  |  |  |  | 
COc1ccc2ccccc2c1/C=C/C1=[N+]2C(=C(c3ccc(NC(=O)CCl)cc3)c3cccn3[B-]2(F)F)C(C)=C1 [BDNCA-61] |  |  |  |  |  | 0.08 | 581 nm | 46 | 33,776 | 627
CCOc1ccc(/C=C/C2=[N+]3C(=C(c4ccc(NC(=O)CCl)cc4)c4cccn4[B-]3(F)F)C(C)=C2)cc1 [BDNCA-429] | 566 nm | 33 | 64,531 | 599 | 0.14 |  |  |  |  | 
COc1cc(/C=C/C2=[N+]3C(=C(c4ccc(NC(=O)CCl)cc4)c4cccn4[B-]3(F)F)C(C)=C2)cc(OC)c1OC(C)=O [BDNCA-92] |  |  |  |  |  | 0.01 | 555 nm | 24 | 15,652 | 579
Cc1cc(/C=C/c2ccc(CO)o2)n2c1C(c1ccc(NC(=O)CCl)cc1)=C1C=CC=[N+]1[B-]2(F)F [BDNCA-238] |  |  |  |  |  | 0.05 | 575 nm | 33 | 40,366 | 608
CC1=CC(/C=C/c2cccc3c2OCO3)=[N+]2C1=C(c1ccc(NC(=O)CCl)cc1)c1cccn1[B-]2(F)F [BDNCA-231] |  |  |  |  |  | 0.04 | 559 nm | 19 | 33,227 | 578
CC1=CC(/C=C/c2c(C)cccc2Cl)=[N+]2C1=C(c1ccc(NC(=O)CCl)cc1)c1cccn1[B-]2(F)F [BDNCA-285] |  |  |  |  |  | 0.12 | 544 nm | 27 | 44,211 | 571
CC1=CC(/C=C/c2ccc(O)cc2)=[N+]2C1=C(c1ccc(NC(=O)CCl)cc1)c1cccn1[B-]2(F)F [BDNCA-153] |  |  |  |  |  | 0.05 | 569 nm | 37 | 23,341 | 606
CC1=CC(/C=C/c2c(Cl)ccc(C)c2F)=[N+]2C1=C(c1ccc(NC(=O)CCl)cc1)c1cccn1[B-]2(F)F [BDNCA-246] |  |  |  |  |  | 0.09 | 554 nm | 19 | 43,387 | 573
CC1=CC(/C=C/c2nccn2C)=[N+]2C1=C(c1ccc(NC(=O)CCl)cc1)c1cccn1[B-]2(F)F [BDNCA-72] |  |  |  |  |  | 0.02 | 573 nm | 45 | 17,849 | 618
Cc1cc(/C=C/c2ccc(OCc3ccc(Br)cc3)cc2)n2c1C(c1ccc(NC(=O)CCl)cc1)=C1C=CC=[N+]1[B-]2(F)F [BDNCA-52] |  |  |  |  |  | 0.05 | 556 nm | 24 | 36,247 | 580
CC1=CC(/C=C/c2ccc(Br)s2)=[N+]2C1=C(c1ccc(NC(=O)CCl)cc1)c1cccn1[B-]2(F)F [BDNCA-100] |  |  |  |  |  | 0.10 | 574 nm | 23 | 48,879 | 597
CC1=CC(/C=C/c2ccc(C)c(Cl)c2)=[N+]2C1=C(c1ccc(NC(=O)CCl)cc1)c1cccn1[B-]2(F)F [BDNCA-289] |  |  |  |  |  | 0.16 | 560 nm | 26 | 60,686 | 586
COc1ccc(/C=C/c2cc(C)c3n2[B-](F)(F)[N+]2=CC=CC2=C3c2ccc(NC(=O)CCl)cc2)c2ccccc12 [BDNCA-32] |  |  |  |  |  | 0.06 | 583 nm | 66 | 27,735 | 649
CC1=CC(/C=C/c2ccc(Cl)cc2Cl)=[N+]2C1=C(c1ccc(NC(=O)CCl)cc1)c1cccn1[B-]2(F)F [BDNCA-147] |  |  |  |  |  | 0.07 | 557 nm | 21 | 23,616 | 578
CC1=CC(/C=C/c2cccc3ccccc23)=[N+]2C1=C(c1ccc(NC(=O)CCl)cc1)c1cccn1[B-]2(F)F [BDNCA-25] |  |  |  |  |  | 0.09 | 566 nm | 28 | 32,952 | 594
CCc1ccc(/C=C/C2=[N+]3C(=C(c4ccc(NC(=O)CCl)cc4)c4cccn4[B-]3(F)F)C(C)=C2)cc1[N+](=O)[O-] [BDNCA-252] |  |  |  |  |  | 0.08 | 556 nm | 20 | 57,666 | 576
Cc1cc(/C=C/c2ccccc2OC(F)F)n2c1C(c1ccc(NC(=O)CCl)cc1)=C1C=CC=[N+]1[B-]2(F)F [BDNCA-240] |  |  |  |  |  | 0.08 | 554 nm | 19 | 47,506 | 573
CC1=CC(/C=C/c2ccc(O)c([N+](=O)[O-])c2)=[N+]2C1=C(c1ccc(NC(=O)CCl)cc1)c1cccn1[B-]2(F)F [BDNCA-131] |  |  |  |  |  | weak | 643 nm |  | 18,124 | weak
Cc1ccc(/C=C/c2cc(C)c3n2[B-](F)(F)[N+]2=CC=CC2=C3c2ccc(NC(=O)CCl)cc2)s1 [BDNCA-236] |  |  |  |  |  | 0.11 | 577 nm | 31 | 72,220 | 608
CC1=CC(/C=C/c2cccc(O)c2)=[N+]2C1=C(c1ccc(NC(=O)CCl)cc1)c1cccn1[B-]2(F)F [BDNCA-105] |  |  |  |  |  | 0.06 | 556 nm | 19 | 38,719 | 575
Cc1cc(/C=C/c2ccc(Oc3ccc(Cl)cc3)cc2)n2c1C(c1ccc(NC(=O)CCl)cc1)=C1C=CC=[N+]1[B-]2(F)F [BDNCA-277] |  |  |  |  |  | 0.15 | 561 nm | 24 | 65,080 | 585
CCOc1cccc(/C=C/C2=[N+]3C(=C(c4ccc(NC(=O)CCl)cc4)c4cccn4[B-]3(F)F)C(C)=C2)c1OCC [BDNCA-317] | 557 nm | 22 | 45,858 | 579 | 0.08 |  |  |  |  | 
CC1=CC(/C=C/c2ccc(Oc3ccc(F)cc3)cc2)=[N+]2C1=C(c1ccc(NC(=O)CCl)cc1)c1cccn1[B-]2(F)F [BDNCA-322] | 561 nm | 27 | 67,826 | 588 | 0.14 |  |  |  |  | 
CC1=CC(/C=C/c2ccc(Cl)cc2)=[N+]2C1=C(c1ccc(NC(=O)CCl)cc1)c1cccn1[B-]2(F)F [BDNCA-12] |  |  |  |  |  | 0.10 | 557 nm | 19 | 49,428 | 576
CC1=CC(/C=C/c2ccccc2Oc2ccc(F)cc2)=[N+]2C1=C(c1ccc(NC(=O)CCl)cc1)c1cccn1[B-]2(F)F [BDNCA-341] | 558 nm | 22 | 58,764 | 580 | 0.10 |  |  |  |  | 
CC1=CC(/C=C/c2cc(Cl)ccc2O)=[N+]2C1=C(c1ccc(NC(=O)CCl)cc1)c1cccn1[B-]2(F)F [BDNCA-121] |  |  |  |  |  | 0.06 | 564 nm | 21 | 39,817 | 585
